The nature of data set [1]: Iodination of arachidonic acid by molecular iodine (thiosulfate titration, Example 1). The following applies: 0.01N sodium thiosulfate titration. It is filed as physicochemical. The protocol: A stock solution of 10 mg/ml arachidonic acid in ethanol was prepared. […] A control vial was prepared that had no arachidonic acid.
An iodate/iodide solution was prepared separately by adding NaIO3 (Sigma-Aldrich, St. Louis, Mo.; part number S4007-500G) and NaI (Sigma-Aldrich, St. Louis, Mo.; part number […]) to final concentrations of 3.16 and 20.55 mM, respectively, in 0.64M sodium carbonate in water.
Vials were then titrated with 0.01N sodium thiosulfate solution until the samples went from dark blue to colorless.
Since the oxidation of iodide after acidification is diffusion controlled, the reaction of iodate with iodide is essentially instantaneous and five moles of iodide reacts with each mole of iodate to form 3 moles of molecular iodine.
The ratio of iodide to iodate used in this experiment insured that there was unreacted […] present in the solution after acidification with HCl.

A short description of data set [2]: Iodination of arachidonic acid by molecular iodine with additional iodate (thiosulfate titration, Example 3). It is filed as physicochemical. The protocol:
A stock solution of 10 mg/ml arachidonic acid in ethanol was prepared. […] A control vial was prepared that had no arachidonic acid. An iodate/iodide solution was prepared separately by adding NaIO3 (Sigma-Aldrich, St. Louis, Mo.; part number […]) and NaI (Sigma-Aldrich, St.

The conditions of data set [3]: cited from earlier work.
How the values of data set [4] were obtained: An iodate/iodide solution was prepared separately by adding sodium iodate (Sigma-Aldrich, St. Louis, Mo.; part number S4007-500G) and sodium iodide (Sigma Aldrich, St. Louis, Mo.; part number 383112-100G) to final concentrations of 3.16 and 20.55 mM, respectively, in 0.64M sodium carbonate in water. One mL of the iodate/iodide solution was then added to the vials followed by 100 μl of 0.5% starch indicator.
This additional sodium iodate was added to provide additional oxidant to re-oxidize any iodide that might be formed by the iodination of arachidonic acid.
Two mL of 1N HCl was added and a visual observation of the samples was recorded. Vials were then titrated with 0.01N sodium thiosulfate solution until the samples went from dark blue to colorless.

Data set [5] is described as follows: Subchronic administration to male rats, thyroid weight. It is filed as in vivo. The following applies: mammals; iodide vs molecular iodine.
The conditions of data set [6]: male rats, subchronic administration, cited from earlier work.
Data set [7] deals with N-methyl-N-nitrosourea-induced mammary carcinogenesis. The following applies: in vivo; cited from earlier work.

Where two headings read alike, the source gives them in different places.

As to `CCCCC/C=C\C/C=C\C/C=C\C/C=C\CCCC(=O)O` [Arachidonic Acid, (5Z,8Z,11Z,14Z)-5,8,11,14-eicosatetraenoic acid], the values for the Thiosulfate in data set [1] (0.3 mg arachidonic acid) and in data set [1] (1.0 mg arachidonic acid) were 1.75 mL and 1.62 mL, respectively. In addition, in data set [2] (1 mg arachidonic acid, additional iodate), the “decrease of molecular iodine observed from Sample 3 to Sample 4” value is 0.50 ∞mol. In addition, in data set [2] (one mg arachidonic acid, Sample 2 vs Sample 1, unit of the source corrected), the molecular iodine reacted with turned out to be 1 µmol. The systemic inflammation entry in data set [3] (bodybuilders, 1500 mg) is reported as “may reduce systemic inflammation”. Also, the “toxicity or safety risk” value in data set [3] (daily oral administration of up to 1500 mg) is recorded as “no toxicity or safety risk”. In addition, the carcinogenicity entry in data set [3] (in vivo) is on record as “not carcinogenic”.

As for `C/C=C/C=C/C(=O)O` [Sorbic Acid, sorbic acid, reference compound], the Thiosulfate was found to be 1.45 mL in data set [4] (sample 2: 1 mg sorbic acid, no additional NaIO3); 1.60 mL in data set [4] (sample 4: 1 mg sorbic acid, additional NaIO3 188 ∝g); 1.70 mL in data set [2] (sample 2: 1 mg acid, no additional NaIO3); 2.10 mL in data set [2] (sample 4: 1 mg acid, additional NaIO3 188 ∝g).

As to `I` [iodide], the “concentration affecting thyroid weight, less than for a comparable effect from molecular iodine” value in data set [5] is given as 10 fold. The thyroid weight result in data set [6] (10 mg/kg) is reported as “increased”. The “formation of carcinogen induced tumors” value in data set [7] was “not”.

Consider `II` [molecular iodine], for which, in data set [6] (even at 100 mg/kg), the thyroid weight entry is recorded as “did not affect thyroid weight”. Besides, the “formation of carcinogen induced tumors” value in data set [7] is listed as “inhibits”.

The values are drawn from patent publication US20190105344A1, “ORAL MOLECULAR IODINE COMPOSITION AND METHOD” (Iogen, LLC, priority 2016, published 2019).
